Source: US9833497B2, “Human originated EGF domain proteins and use of the same” (CHENGDU SOURCEBIO LIMITED-LIABILITY COMPANY, priority 2013, dated 2017)

What was measured:
Assay type in all cases: cell-based
E. coli DH5α = assay: Antibacterial activity: MIC and growth curve against E. coli DH5α in 96-well plate; settings: minimal inhibitory concentration against E. coli DH5α; 96-well plate, 5×10^5 CFU/mL, 37° C., judged after 8 h
Procedure, shortened: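 MIC taken as lowest protein level with no bacterial growth, tracked by A600 every 30 min during 37 °C, 175 rpm culture. Two-fold protein series 50-12.5 μg/mL final, triplicate wells, against 5×10^5 CFU/mL of LB-washed mid-log cells.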

E. coli BL21 = assay: MIC against Gram-negative bacteria: E. coli BL21; settings: for MIC / MIC (μg/mL) E. coli BL21: E. coli BL21
Procedure, shortened: (§1)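 MIC, the lowest recombinant protein concentration giving no bacterial growth, found by two-fold serial dilution of human EGF-domain proteins in triplicate. Inoculum 5×10^5 CFU/mL in LB from cultures at McFarland 0.5; plates incubated at 37° C, 175 rpm shaking.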

Pseudomonas aeruginosa = assay: MIC against Gram-negative bacteria: Pseudomonas aeruginosa
Procedure, shortened: as §1

Klebsiella pneumonia = assay: MIC against Gram-negative bacteria: Klebsiella pneumonia
Procedure, shortened: as §1

Enterobacter cloacae = assay: MIC against Gram-negative bacteria: Enterobacter cloacae
Procedure, shortened: as §1

Aeromonas hydrophila = assay: MIC against Gram-negative bacteria: Aeromonas hydrophila
Procedure, shortened: as §1

Citrobacter diversus = assay: MIC against Gram-negative bacteria: Citrobacter diversus
Procedure, shortened: as §1

Moraxella catarrhalis = assay: MIC against Gram-negative bacteria: Moraxella catarrhalis
Procedure, shortened: as §1

Proteus mirabilis = assay: MIC against Gram-negative bacteria: Proteus mirabilis
Procedure, shortened: as §1

Proteus vulgaris = assay: MIC against Gram-negative bacteria: Proteus vulgaris
Procedure, shortened: as §1

Serratia marcescens = assay: MIC against Gram-negative bacteria: Serratia marcescens
Procedure, shortened: as §1

[1] = P. aeruginosa, 10 h cultivation at 37° C.
[2] = K. pneumonia, 10 h cultivation at 37° C.
[3] = E. cloacae, 10 h cultivation at 37° C.
[4] = A. hydrophila, 10 h cultivation at 37° C.
[5] = C. diversus, 10 h cultivation at 37° C.
[6] = M. catarrhalis, 10 h cultivation at 37° C.
[7] = P. mirabilis, 10 h cultivation at 37° C.
[8] = P. vulgaris, 10 h cultivation at 37° C.
[9] = S. marcescens, 10 h cultivation at 37° C.
[10] = 96-well plate, 5×10^5 CFU/mL, 37° C., 10 h
[11] = 10 h cultivation at 37° C., 5×10^5 CFU/mL, two-fold serial dilution

PRT974 (EADPCLSRPCLHGGVCSAAHPGFRCTCLESFTGPQCQ; listed as Homo sapiens)
12.5 µg/mL: MIC (Pseudomonas aeruginosa; [1]) | MIC (Enterobacter cloacae; [3]) | MIC (Moraxella catarrhalis; [6]) | MIC (Serratia marcescens; [9])
25 µg/mL: MIC (E. coli DH5α) | MIC (Citrobacter diversus; [5]) | MIC (Proteus vulgaris; [8])
50 µg/mL: MIC (E. coli BL21; 10 h cultivation at 37° C.) | MIC (Klebsiella pneumonia; [2]) | MIC (Aeromonas hydrophila; [4]) | MIC (Proteus mirabilis; [7])

PRT777 (SGDRCQLQTRCQNGGQWDGLKCQCPSTFYGSSCE; listed as Homo sapiens)
50 µg/mL: MIC (E. coli DH5α) | MIC (μg/mL) P. aeruginosa (Pseudomonas aeruginosa; P. aeruginosa, 10 h cultivation at 37° C., 5×10^5 CFU/mL) | MIC (μg/mL) A. hydrophila (Aeromonas hydrophila; A. hydrophila, 10 h cultivation at 37° C., 5×10^5 CFU/mL) | MIC (μg/mL) C. diversus (Citrobacter diversus; C. diversus, 10 h cultivation at 37° C., 5×10^5 CFU/mL) | MIC (μg/mL) P. mirabilis (Proteus mirabilis; P. mirabilis, 10 h cultivation at 37° C., 5×10^5 CFU/mL)
25 µg/mL: MIC (μg/mL) P. vulgaris (Proteus vulgaris; P. vulgaris, 10 h cultivation at 37° C., 5×10^5 CFU/mL)
12.5 µg/mL: MIC (μg/mL) E. coli BL21 (E. coli BL21; 10 h cultivation at 37° C., 5×10^5 CFU/mL) | MIC (μg/mL) K. pneumonia (Klebsiella pneumonia; K. pneumonia, 10 h cultivation at 37° C., 5×10^5 CFU/mL) | MIC (μg/mL) E. cloacae (Enterobacter cloacae; E. cloacae, 10 h cultivation at 37° C., 5×10^5 CFU/mL) | MIC (μg/mL) M. catarrhalis (Moraxella catarrhalis; M. catarrhalis, 10 h cultivation at 37° C., 5×10^5 CFU/mL) | MIC (μg/mL) S. marcescens (Serratia marcescens; S. marcescens, 10 h cultivation at 37° C., 5×10^5 CFU/mL)

PRT37 (IGVDCSDGFNGGCEQLCLQQMAPFPDDPTLYNILMFCGCIEDYKLGVDGRSCQ; listed as Homo sapiens)
50 µg/mL: MIC (μg/mL) E. coli BL21 (E. coli BL21; [10])
12.5 µg/mL: MIC (μg/mL) E. cloacae (Enterobacter cloacae; Enterobacter cloacae, 96-well plate, 5×10^5 CFU/mL, 37° C., 10 h) | MIC (μg/mL) A. hydrophila (Aeromonas hydrophila; Aeromonas hydrophila, 96-well plate, 5×10^5 CFU/mL, 37° C., 10 h) | MIC (μg/mL) M. catarrhalis (Moraxella catarrhalis; Moraxella catarrhalis, 96-well plate, 5×10^5 CFU/mL, 37° C., 10 h) | MIC (μg/mL) P. mirabilis (Proteus mirabilis; Proteus mirabilis, 96-well plate, 5×10^5 CFU/mL, 37° C., 10 h) | MIC (μg/mL) S. marcescens (Serratia marcescens; Serratia marcescens, 96-well plate, 5×10^5 CFU/mL, 37° C., 10 h)
25 µg/mL: MIC (E. coli DH5α) | MIC (μg/mL) P. aeruginosa (Pseudomonas aeruginosa; Pseudomonas aeruginosa, 96-well plate, 5×10^5 CFU/mL, 37° C., 10 h) | MIC (μg/mL) K. pneumonia (Klebsiella pneumonia; Klebsiella pneumonia, 96-well plate, 5×10^5 CFU/mL, 37° C., 10 h) | MIC (μg/mL) C. diversus (Citrobacter diversus; Citrobacter diversus, 96-well plate, 5×10^5 CFU/mL, 37° C., 10 h) | MIC (μg/mL) P. vulgaris (Proteus vulgaris; Proteus vulgaris, 96-well plate, 5×10^5 CFU/mL, 37° C., 10 h)

PRT989 (NIDDCATAVCFHGATCHDRVASFYCACPMGKTGLLCH; listed as Homo sapiens)
12.5 µg/mL: MIC (E. coli BL21; 10 h cultivation at 37° C.) | MIC (Klebsiella pneumonia; [2]) | MIC (Enterobacter cloacae; [3]) | MIC (Aeromonas hydrophila; [4]) | MIC (Proteus mirabilis; [7]) | MIC (Proteus vulgaris; [8])
100 µg/mL: MIC (Citrobacter diversus; [5]) | MIC (Moraxella catarrhalis; [6])
25 µg/mL: MIC (Serratia marcescens; [9])
50 µg/mL: MIC (E. coli DH5α) | MIC (Pseudomonas aeruginosa; [1])

PRT577 (CACHPSRARGPTCNEFTGQCHCRAGFGGRTCSECQELHWGDPGLQCHA; listed as Homo sapiens)
12.5 µg/mL: MIC (E. coli DH5α) | MIC against E. cloacae (Enterobacter cloacae; [10]) | MIC against M. catarrhalis (Moraxella catarrhalis; [10]) | MIC against P. vulgaris (Proteus vulgaris; [10])
50 µg/mL: MIC against P. aeruginosa (Pseudomonas aeruginosa; [10]) | MIC against C. diversus (Citrobacter diversus; [10]) | MIC against P. mirabilis (Proteus mirabilis; [10]) | MIC against S. marcescens (Serratia marcescens; [10])
25 µg/mL: MIC against E. coli BL21 (E. coli BL21; [10]) | MIC against K. pneumonia (Klebsiella pneumonia; [10]) | MIC against A. hydrophila (Aeromonas hydrophila; [10])

PRT652 (DLDECAFPGVCPSGVCTNTAGSFSCKDCDGGYRPSPLGDSCE; listed as Homo sapiens)
25 µg/mL: MIC E. coli BL21 (E. coli BL21; [10]) | MIC K. pneumonia (Klebsiella pneumonia; [10]) | MIC A. hydrophila (Aeromonas hydrophila; [10]) | MIC M. catarrhalis (Moraxella catarrhalis; [10]) | MIC P. vulgaris (Proteus vulgaris; [10])
12.5 µg/mL: MIC (E. coli DH5α) | MIC E. cloacae (Enterobacter cloacae; [10]) | MIC P. mirabilis (Proteus mirabilis; [10])
50 µg/mL: MIC P. aeruginosa (Pseudomonas aeruginosa; [10]) | MIC C. diversus (Citrobacter diversus; [10]) | MIC S. marcescens (Serratia marcescens; [10])

PRT1127 (KDGPCVINGSPCQHGGTCVDDEGRASHASCLCPPGFSGNFCE; listed as Homo sapiens)
25 µg/mL: MIC C. diversus (Citrobacter diversus; [11]) | MIC P. mirabilis (Proteus mirabilis; [11]) | MIC S. marcescens (Serratia marcescens; [11])
50 µg/mL: MIC E. coli BL21 (E. coli BL21; [11]) | MIC K. pneumonia (Klebsiella pneumonia; [11]) | MIC A. hydrophila (Aeromonas hydrophila; [11]) | MIC P. vulgaris (Proteus vulgaris; [11])
12.5 µg/mL: MIC (E. coli DH5α) | MIC P. aeruginosa (Pseudomonas aeruginosa; [11]) | MIC E. cloacae (Enterobacter cloacae; [11]) | MIC M. catarrhalis (Moraxella catarrhalis; [11])
